Source: patent US6344457B1, “Amino acid derivatives inhibiting extracellular matrix metalloproteinase and TNF alpha release” (Chiesi Farmaceutici S.p.A., priority 1997, dated 2002)

Columns and labels:
[1] = biological target: T1, collagenase of the human monocytic stock U937 (Homo sapiens, UniProt P03956); assay: Activity on collagenase; assay type: biochemical; settings: radiomarked collagen, 27° C., 16 hours; read-out: C150 (nM) collagenase
T1 construct: the collagenase of the human monocytic stock U937; endogenous in cells; host or cells: U937 human monocytic cell line
T1 sequence (P03956 100-469): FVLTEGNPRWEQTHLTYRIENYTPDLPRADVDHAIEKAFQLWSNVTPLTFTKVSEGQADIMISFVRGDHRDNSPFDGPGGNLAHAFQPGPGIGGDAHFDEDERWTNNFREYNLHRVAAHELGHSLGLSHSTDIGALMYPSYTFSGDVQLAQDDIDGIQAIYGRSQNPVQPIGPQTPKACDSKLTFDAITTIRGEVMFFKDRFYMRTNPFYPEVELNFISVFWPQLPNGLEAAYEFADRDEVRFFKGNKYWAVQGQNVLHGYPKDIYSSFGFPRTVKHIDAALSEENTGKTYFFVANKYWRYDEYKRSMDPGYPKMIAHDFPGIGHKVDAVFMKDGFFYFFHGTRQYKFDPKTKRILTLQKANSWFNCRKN
Method: The collagenase was incubated at 27° C. for 16 hours with radiomarked collagen, and its activity was determined by the release of soluble peptides produced by the enzymatic breakdown of the collagen. The inhibiting concentration C150 for each compound was determined by measurement of the activity of the enzyme in the presence of the inhibitor at a concentration ranging between 10^−7 and 10^−12 M (the inhibitor is dissolved at a concentration of 10^−2 M in DMSO, then diluted successively by tenths in the buffer: Tris, HCl 150 mM, pH 7.5; NaCl 0.15 M; CaCl2 10 mM).

[2] = biological target: 92 kDa gelatinase of human origin (Homo sapiens, UniProt P14780); assay: Activity on gelatinase, radiomarked gelatin; assay type: biochemical; settings: test performed with radiomarked gelatin; read-out: C150 (nM) gelatinase 92 kDa*
Method: The anti-gelatinase activity of the compounds according to the invention also was determined on 92 kDa or 72 kDa gelatinase of human origin, in accordance with the operating mode described by Harris, E. D., Krane, S. M.; (Biochem. Biophys. Acta, 258, 566-576, 1972).
(§1) The gelatinase was incubated at 37° C. for 16 hours with radiomarked gelatin, and its activity was determined by the release of the soluble peptides produced by the enzymatic breakdown of the gelatin. The inhibiting concentration C150 for each compound was determined by measurement of the activity of the enzyme in the presence of the inhibitor at a concentration ranging between 10^−7 and 10^−12 M (the inhibitor is dissolved in the same manner as for collagenase).

[3] = biological target: T2, 72 kDa gelatinase of human origin (Homo sapiens, UniProt P08253); assay: Activity on gelatinase, synthetic substrate; assay type: biochemical; settings: performed on synthetic substrate; read-out: C150 (nM) gelatinase 72 kDa**
T2 sequence (P08253 110-660): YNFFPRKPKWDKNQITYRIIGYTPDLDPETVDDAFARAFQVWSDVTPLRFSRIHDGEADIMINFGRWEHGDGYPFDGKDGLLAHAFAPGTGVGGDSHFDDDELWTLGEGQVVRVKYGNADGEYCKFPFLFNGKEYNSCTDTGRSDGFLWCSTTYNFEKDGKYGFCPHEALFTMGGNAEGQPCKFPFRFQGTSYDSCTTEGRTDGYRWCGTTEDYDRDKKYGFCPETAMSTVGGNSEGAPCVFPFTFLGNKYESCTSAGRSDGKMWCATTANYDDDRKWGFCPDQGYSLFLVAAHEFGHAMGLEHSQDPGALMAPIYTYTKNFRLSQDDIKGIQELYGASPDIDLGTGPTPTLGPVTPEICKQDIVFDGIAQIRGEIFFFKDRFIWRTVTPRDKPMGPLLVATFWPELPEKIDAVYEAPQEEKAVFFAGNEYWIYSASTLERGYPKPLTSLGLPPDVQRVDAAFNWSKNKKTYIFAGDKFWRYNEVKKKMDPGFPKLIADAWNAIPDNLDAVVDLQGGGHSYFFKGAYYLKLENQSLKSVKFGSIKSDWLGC
Method: The anti-gelatinase activity of the compounds according to the invention was determined on 72 kDa gelatinase of human origin, in accordance with the operating mode described by Knight, C. G., Willenbrock, F., Murphy, G. (FEBS Letters, 296 (3), 263-266, 1992).
The gelatinase was incubated at 37° C. for 10 minutes, and its activity was determined by the increase in fluorescence of the product of Mca-Pro-Leu breakdown of the Mca-Pro-Leu-Gly-Leu-Dpa-Ala-Arg-NH2 synthetic substrate.
The inhibiting concentration C150 for each compound was determined by measurement of the activity of the enzyme in the presence of the inhibitor at a concentration ranging between 10^−7 and 10^−12 M (the inhibitor is dissolved at a concentration of 10^−2 M in DMSO, then diluted successively by tenths in DMSO to 10^−4 M, then in the buffer: Tris, HCl 50 mM+0.05% Brij 35; CaCl2 10 mM; NaCl 0.15 M).

[4] = biological target: stromelysine of human origin (Homo sapiens, UniProt P08254); assay: Activity on stromelysine; assay type: biochemical; settings: radiomarked transferrin, 37° C., 16 hours; read-out: C150 (nM) stromelysine
Method: as §1, with “stromelysine” for “gelatinase”, “transferrin,” for “gelatin,”, “transferrin.” for “gelatin.”

[5] = tested on: release of TNF from the peritoneal macrophages of mice stimulated by LPS; assay: Inhibition of the production of TNF in vitro; assay type: cell-based; settings: Peritoneal macrophage; mouse peritoneal macrophages, LPS 100 ng/ml; read-out: C150 (μM) TNF
Method: The capacity of the compounds according to this invention to inhibit the release of TNF was determined from the peritoneal macrophages of mice stimulated by LPS (Lang, F., Robert, […], Petit, J. Y., J. Pharmacol. Exp. Ther., 275, 171-176, 1995). After an adhesion phase of 2 hours, the cells were treated for 1 hour with the compound to be tested at concentrations ranging between 10^-6 to 10^-9 M (the inhibitor is dissolved in DMSO at 10^-2 M, then at 5.10^-3 M in RPMI 1640 with 5% SVF, then diluted successively by tenths in the same medium), then stimulated by the addition of LPS (100 ng/ml in final concentration). Three hours later, the biological activity of the TNF in the supernatants was determined by a cytotoxicity test using the murine stock L929 in accordance with the operating procedure described by Band, G., Lin, […]., Evans, C. H. (Bioch. Biophys. Acta, 1134, 309-318, 1982). The pg/ml concentration of the TNF of the samples was determined from a murine αTNF standard curve, thus making it possible to define the inhibiting concentration […] of the compounds studied.

Sequence of stromelysine of human origin (P08254 100-477): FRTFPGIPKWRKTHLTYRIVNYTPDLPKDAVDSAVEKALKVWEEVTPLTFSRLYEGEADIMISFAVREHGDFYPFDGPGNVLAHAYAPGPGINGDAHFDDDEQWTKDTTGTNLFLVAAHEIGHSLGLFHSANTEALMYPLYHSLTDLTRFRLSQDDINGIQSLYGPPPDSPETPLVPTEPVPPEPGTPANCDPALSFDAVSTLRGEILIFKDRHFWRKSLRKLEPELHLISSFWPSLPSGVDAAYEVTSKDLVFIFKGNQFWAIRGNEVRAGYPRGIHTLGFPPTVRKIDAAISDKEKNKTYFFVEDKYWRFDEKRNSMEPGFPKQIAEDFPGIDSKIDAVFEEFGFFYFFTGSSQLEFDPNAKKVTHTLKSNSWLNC
Sequence of 92 kDa gelatinase of human origin (P14780 94-707): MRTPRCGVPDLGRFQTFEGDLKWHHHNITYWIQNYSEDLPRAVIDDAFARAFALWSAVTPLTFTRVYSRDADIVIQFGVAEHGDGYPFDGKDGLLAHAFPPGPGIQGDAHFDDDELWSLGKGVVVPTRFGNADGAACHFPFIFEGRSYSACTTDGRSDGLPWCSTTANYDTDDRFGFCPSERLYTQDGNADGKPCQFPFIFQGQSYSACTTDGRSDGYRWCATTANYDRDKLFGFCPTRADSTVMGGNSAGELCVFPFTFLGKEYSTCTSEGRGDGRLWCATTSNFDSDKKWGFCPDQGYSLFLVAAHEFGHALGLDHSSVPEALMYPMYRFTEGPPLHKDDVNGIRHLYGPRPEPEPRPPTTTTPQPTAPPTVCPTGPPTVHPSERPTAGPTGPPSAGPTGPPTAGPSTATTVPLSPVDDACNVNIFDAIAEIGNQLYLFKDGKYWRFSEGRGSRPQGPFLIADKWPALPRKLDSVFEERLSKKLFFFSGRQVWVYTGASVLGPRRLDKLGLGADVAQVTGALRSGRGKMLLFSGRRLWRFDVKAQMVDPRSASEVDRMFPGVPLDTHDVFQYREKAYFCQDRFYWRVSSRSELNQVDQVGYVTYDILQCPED

Row | Compound | IC50 [1] | IC50 [2] | IC50 [3] | IC50 [4] | IC50 [5] | melting point
1 | CNC(=O)[C@H](Cc1ccc(Cl)cc1)NC(=O)[C@](O)(CC(C)C)[C@H](O)C(=O)NO [Example 3, N-2 (S) [(S) hydroxy (S) hydroxycarbamoylmethyl] 2(S) hydroxy 4-methyl pentanoyl L-4-chlorophenylalanine N-methylamide] | 50 nM | 54 nM | 6.7 nM | > 1000 nM | 3.2 µM | 
2 | CNC(=O)[C@H](Cc1ccccc1)NC(=O)[C@](O)(CC(C)C)[C@H](C)C(=O)NO [Example 4, N-2(S)[1(S)(hydroxycarbamoyl)ethyl] 2(S) hydroxy4-methyl pentanoyl L-phenyl alanine N-methylamide] | 36 nM | 10 nM | 1.6 nM | 29 nM |  | 174.2 °C (dec.)
3 | CNC(=O)[C@H](Cc1ccc(N)cc1)NC(=O)[C@](O)(CC(C)C)[C@H](C)C(=O)NO [Example 9, N-2(S)[1(S) (hydroxycarbamoyl) 1(S)ethyl]2-(S) hydroxy-4-methyl pentanoyl L-4-amino phenylalanine N-methylamide] | 11 nM | 2 nM | 1.6 nM | 50 nM | 2.2 µM | 
4 | CNC(=O)[C@H](Cc1ccc(Br)cc1)NC(=O)[C@](O)(CC(C)C)[C@H](C)C(=O)NO [Example 11, N-2(S)[-1(S)(hydroxycarbamoyl)-1 ethyl]-2(S) hydroxy 4-methyl pentanoyl L-4-bromophenylalanine N-methylamide] | 10 nM | 2 nM | 2 nM | 37 nM | 0.61 µM | 214 °C (dec.)
5 | CSCCNC(=O)[C@H](Cc1ccc(Cl)cc1)NC(=O)[C@](O)(CC(C)C)[C@H](C)C(=O)NO [Example 13, N-2(S)[-1-(S)(hydroxycarbamoyl)-1 ethyl]-2(S) hydroxy-4-methylpentanoylL-4-chlorophenylalanine N-(2 methylthio-1-ethyl) amide] | 10 nM | 0.005 nM | 1.6 nM | 20 nM | 0.15 µM | 
6 | CNC(=O)[C@H](Cc1ccc(I)cc1)NC(=O)[C@](O)(CC(C)C)[C@H](C)C(=O)NO [Example 14, N-2(S)[1(S) hydroxycarbamoyl-1 ethyl]-2(S) hydroxy 4 methyl pentanoyl L-4-iodophenylalanine N-methylamide] | 2 nM | 0.2 nM | 0.3 nM | 12 nM | 0.4 µM | 
7 | CSCCNC(=O)[C@H](Cc1ccc(I)cc1)NC(=O)[C@](O)(CC(C)C)[C@H](C)C(=O)NO [Example 15, N-2(S)[1(S) hydroxycarbamoyl-1 ethyl]2(S) hydroxy 4-methylpentanoyl L-4-iodophenylalanine N-(2 methylthio-1-ethyl) amide] | 32 nM | 0.001 nM | 1.3 nM | 38 nM | 4.5 µM | 
8 | CNC(=O)[C@H](Cc1ccc(F)cc1)NC(=O)[C@](O)(CC(C)C)[C@H](C)C(=O)NO [Example 16, N-2(S)[1(S)hydroxycarbamoyl-1 ethyl]-2(S) hydroxy 4-methylpentanoyl L-4-fluorophenylalanine N-methylamide] | 14 nM | 2 nM | 1.2 nM |  | 0.6 µM | 186.5 °C
9 | CNC(=O)[C@H](Cc1ccc(OC)cc1)NC(=O)[C@](O)(CC(C)C)[C@H](O)C(=O)NO [Example 29] | 26 nM | 80 nM | 13 nM |  |  | 199 °C (dec.)
10 | CNC(=O)[C@H](Cc1ccc(Cl)c(Cl)c1)NC(=O)[C@](O)(CC(C)C)[C@H](O)C(=O)NO [Example 30] | 11 nM | 7 nM |  | > 1000 nM | 3.6 µM | 194.1 °C
11 | CNC(=O)[C@H](Cc1ccc(OC)cc1)NC(=O)[C@H](CC(C)C)[C@H](C)C(=O)NO [drawing 111, reference compound] | 5 nM | 7 nM | 0.6 nM | 10 nM | 0.14 µM | 
